Data reported in paper PMC8516330 (The AAPS Journal, 2021).

Experiment: Encapsulation efficiency of liposomes and lipodisks by RP-HPLC
Details: for Change of EE in lipodisks compared with liposomes: curcumin D/L 0.01, acyclovir D/L 0.03; for EE% (encapsulation efficiency), D/L 0.1: D/L ratio 0.1 (w/w), N = 3

Compound | Change of EE in lipodisks compared with liposomes | EE% (encapsulation efficiency), D/L 0.1 ([…]) [%] | Encapsulation efficiency, lipodisks D/L 0.01 (D/L ratio 0.01) | Encapsulation efficiency, liposomes D/L 0.01 (liposomes, D/L ratio 0.01) | Encapsulation efficiency, liposomes D/L 0.03 ([…], D/L ratio 0.03, passive loading) [%] | Encapsulation efficiency, lipodisks D/L 0.03 (lipodisks (62% DSPE-PEG2000), D/L ratio 0.03) [%]
Nc1nc2c(ncn2COCCO)c(=O)[nH]1 [Acyclovir, acyclovir] | did not significantly increase |  |  |  |  | 
COc1cc(/C=C/C(=O)CC(=O)/C=C/c2ccc(O)c(OC)c2)ccc1O [Curcumin, curcumin] | remained constant | 11.41 | ~ 82.4% | ~ 82.4% |  | 
C[C@@H]1C[C@H]2[C@@H]3CCC4=CC(=O)C=C[C@]4(C)[C@@]3(F)[C@@H](O)C[C@]2(C)[C@@]1(O)C(=O)CO [Dexamethasone, dexamethasone] |  | 1.49 | 27.46% |  | 2.3 | 9.7
